These results are taken from publication PMC12040169 (PLOS Biology, 2025).

The nature of the data set: in vitro. The conditions noted are these: human, hela cells, % viability.

Broadly, the viability is a read-out of living cells in per cent, often relative to untreated cells. Regarding `Cn1cccc1C(=O)N[C@H]1C[C@@H]2C(=O)N[C@H]3CCN(C(=O)C4CCCC4)[C@@H]3C(=O)N2C1` [CBK289272], the viability at 28.5 h, 10 µM was 97.1%. Take `Cn1c(=O)n(C)c2cc(NC3=NS(=O)(=O)c4ccccc43)ccc21` [CBK270210]: the viability at 28.5 h, 10 µM was found to be 91.9%. For `CCC(=O)c1c(-c2ccccc2)nc2n(C)c3ccccc3n12` [CBK262488], the viability at 28.5 h, 10 µM is 69.9%. Take `CC(C)NC(=O)C1CC2CCC1CC21NC(=O)c2ccccc2O1` (stereo not drawn) [CBK284353]: the viability at 28.5 h, 10 µM was 83.5%.

With `COc1ccc2c(c1)C1(CC(=O)N(CCOc3ccccc3)C1=O)C(=O)N2C` (stereo not drawn) [CBK075168], the viability at 28.5 h, 10 µM came to 95.2%. As for `CC(=O)NCCSc1ccc(C(F)(F)F)cn1` [CBK105298], the figure is 94.3%; as for `CSc1ccc(-c2cn3ccnc3c(N3CCN(CCO)CC3)n2)cc1` [CBK066596], 86.6%; as for `CCOc1ccc(-c2ccnc(N3CCOC(CN)C3)n2)cc1C(=O)O` (stereo not drawn) [CBK307644], 84%. Next, `CC(C)(C)C1=CC2=NC3(CCCCCCC3)[C@@H]3C[C@@H](O)[C@@H](O)[C@@H]3N2O1` [CBK303256]: 113%; `O=C(CN1CCOCC1)Nc1ccc(Br)cc1[N+](=O)[O-]` [CBK267314]: 96.9%. As for `O=C(NCC1CCCO1)C1(Cc2ccc(-c3ccc(F)c(F)c3)cc2)CCOCC1` (stereo not drawn) [CBK285534], the viability at 28.5 h, 10 µM was 97.2%. Consider `O=C(c1cccc(Br)c1)N1CCN(S(=O)(=O)N2CCOCC2)CC1` [CBK267470], for which the viability at 28.5 h, 10 µM came to 93.2%.

On to `Cc1cc([N+](=O)[O-])ccc1NC(=O)Cn1cnc2c1c(=O)n(C)c(=O)n2C` [CBK263162], for which the viability at 28.5 h, 10 µM turned out to be 105%. For `Cc1ccc(C(=O)COC(=O)c2cc(O)nc3ccccc23)cc1[N+](=O)[O-]` [CBK264085], the viability at 28.5 h, 10 µM is 98.8%. Next, `CC(C)C(=O)Nc1cc2ccccc2c(-c2cccnc2)n1` [CBK073786]: 101%; `O=C(CCC1CCCC1)n1ccn(CCc2cccs2)c1=O` [CBK106611]: 97.6%.

For `C=Cn1ncc(CN2C3CCC2CC(O)(c2ccc(F)cc2)C3)c1C` (stereo not drawn) [CBK282738], the viability at 28.5 h, 10 µM is 104%. Next, `COc1ccc(OC[C@@H]2C3CCC(C3)N2C(=O)C2CC2)cc1` (stereo partly drawn) [CBK284602]: 94.7%; `S=C(NCCN1CCCCC1)NCC1CCCO1` (stereo not drawn) [CBK268129]: 107%. As for `C=CCC1(CC=C)CCN1C(=O)c1cc(-c2c(C)nn(C)c2C)n[nH]1` [CBK282575], the figure is 82.2%; as for `CCCS(=O)(=O)n1c(=O)n(CC(=O)c2ccccc2OC)c2ccccc21` [CBK106498], 93.1%. Next, `FC(F)(F)c1ccc(N2CCNCC2)nc1OCc1ccccc1COc1ccccc1` [CBK003965A]: 91.9%; `Cc1nc(C(C)NC(=O)CCc2cnn(C)c2)c(C)s1` (stereo not drawn) [CBK307064]: 92.6%. In the case of `CNc1ncnc2c1ncn2[C@@H]1O[C@H](CO)[C@@H](O)[C@H]1O` [CBK200610], the viability at 28.5 h, 10 µM came to 101%. For `COc1c(O)ccc(/C=N/NC(=O)COc2c(Br)cc(Br)cc2Br)c1[N+](=O)[O-]` [CBK261957], the viability at 28.5 h, 10 µM was 95.9%. Regarding `Cc1cc(C)n(C(C(=O)NCCOc2ccc(F)cc2)C(C)C)n1` (stereo not drawn) [CBK281595], the viability at 28.5 h, 10 µM came to 81.4%. Take `Cc1ccc(Nc2c([N+](=O)[O-])nn(-c3ccccc3)[n+]2[O-])cc1F` [CBK268414]: the viability at 28.5 h, 10 µM came to 102%. With `O=C(O)c1ccccc1C(=O)c1ccc(Oc2ncc(C(F)(F)F)cc2Cl)cc1` [CBK161648], the viability at 28.5 h, 10 µM is 106%. As for `N#CCCCN1CCC(Oc2nccnc2OCC2COc3ccccc3O2)CC1` (stereo not drawn) [CBK082994T], the figure is 86.8%; as for `O=C(O)CC(CP(c1ccccc1)c1ccccc1)C(=O)O` (stereo not drawn) [CBK260931], 77.6%. As for `CN(C)c1ccc(-n2ncc(-c3ccsc3)n2)cc1` [CBK112845], the figure is 86.8%; as for `Cc1ccc(-n2c(SCC(=O)NCc3ccccc3)nnc2-c2ccccc2O)c(C)c1` [CBK268892], 91.5%. Take `CCCCCNC(=O)C(Cc1ccc(O)c(C(=O)OCc2ccccc2)c1)NC(=O)OC(C)(C)C` (stereo not drawn) [CBK001708]: the viability at 28.5 h, 10 µM worked out at 96.2%. Take `O=S(=O)(Nc1cc(O[C@@H]2CCNC2)c2occc2c1)c1ccccc1Br` [CBK200020C]: the viability at 28.5 h, 10 µM was determined as 89.6%. With `CN(C)c1cccc(COc2cncc(N3CCNCC3)n2)c1` [CBK200004], the viability at 28.5 h, 10 µM stood at 82.1%. Consider `C1=C(CN2CCn3nc(CNc4cnccn4)cc3C2)CCCC1` [CBK307406], for which the viability at 28.5 h, 10 µM was 86.1%. Consider `COc1c(C)cc(Br)cc1C(=O)NC(=S)Nc1ccccc1N1CCN(C)CC1` [CBK267855C], for which the viability at 28.5 h, 10 µM stood at 97.1%.

As to `CCOC(=O)c1cc(C(N)=S)c(C)nc1C(F)(F)F` [CBK028734], the viability at 28.5 h, 10 µM worked out at 92.8%. As for `CC(C)(CO)CCCn1cncc1-c1cnn(C2CCCCC2)c1` [CBK281779], the viability at 28.5 h, 10 µM came out at 86.7%. Regarding `Nc1ncc2ncn([C@H]3C[C@@H](O)[C@@H](CO)O3)c2n1` [CBK201303], the viability at 28.5 h, 10 µM is 102%. As for `CCCCC1CCC(C(=O)Nc2cc(C)c3c(=O)oc4ccccc4c3n2)CC1` (stereo not drawn) [CBK291136], the viability at 28.5 h, 10 µM was 101%.

For the compound `O=C1C2C=NNC2C(=O)N1c1ccccc1` (stereo not drawn) [CBK022326], the viability at 28.5 h, 10 µM amounted to 103%.

`CN(C)CCN(C)c1cncc(-c2ccc(F)cc2F)n1` [CBK065652]: the viability at 28.5 h, 10 µM turned out to be 90.9%.

For `CN1C[C@H]2N(C)C(=O)c3ccccc3C(=O)[C@@]2(C)C1` [CBK283482], the viability at 28.5 h, 10 µM turned out to be 86.7%. For the compound `Cc1ccc(S(=O)(=O)Nc2sccc2C(=O)N2CCN(C)CC2)cc1` [CBK042264], the viability at 28.5 h, 10 µM was 89.3%. For the compound `COC(=O)c1cccn2cc(CN(CC#N)C3CC3)nc12` [CBK305821], the viability at 28.5 h, 10 µM was 105%.

Turning to `CCN1C(=O)CC2(C1=O)C(=O)N(CC)c1ccc(C)cc12` (stereo not drawn) [CBK075140], the viability at 28.5 h, 10 µM was determined as 99.4%. Next, `NC(=O)CCn1c(=S)n(CCC(N)=O)c2ccccc21` [CBK262301]: 86.2%; `O=C(C1CCC1)N1C2CCC1CC(O)(c1ccc(F)cc1)C2` (stereo not drawn) [CBK283547]: 92.5%. For the compound `Cc1nc2ccc(C(=O)NCCCN3CC(C)CC(C)C3)cc2[nH]1` (stereo not drawn) [CBK283298], the viability at 28.5 h, 10 µM was found to be 85.4%. `O=C(NCCNc1c(Cl)cccc1[N+](=O)[O-])c1cccc(Br)c1` [CBK263940]: the viability at 28.5 h, 10 µM came to 91.4%. Next, `COc1cc(NC(=O)Nc2ccc3ccc(Cl)nc3n2)cc(OC)c1OC` [CBK115933]: 82.9%. As for `O=S(=O)(N1CCCCC1)N1CCN(CC(O)COc2ccc3cc(Br)ccc3c2)CC1` (stereo not drawn) [CBK269032], the viability at 28.5 h, 10 µM amounted to 106%. Next, `CSCCCNC(=O)c1ccc2nc[nH]c2c1` [CBK153314]: 116%; `Cc1cc(OCC2CCN(C(=O)OC(C)(C)C)CC2)ccc1Br` [CBK175091]: 108%; `CC(=O)NC(c1nccs1)C1CCCN(C(=O)C2CCCCC2)C1` (stereo not drawn) [CBK282170]: 113%. Next, `CCCC(=O)Nc1ccc(-c2csc(N3CCN(C)CC3)n2)cc1` [CBK305025]: 103%.
